Laboratory results: ChEMBL document CHEMBL1671750, “Emergence and molecular characterization of extensively drug-resistant Mycobacterium tuberculosis clinical isolates from the Delhi Region in India” (2010)
Converted amounts (≈) assume the structure as drawn. The source made the active and inactive calls. The rule behind the calls is not given here.

Experiments:
[1] = tested on: Mycobacterium tuberculosis; assay: Antimycobacterial activity against extensively drug-resistant Mycobacterium tuberculosis isolate 2474 obtained from sputum of patient at 5 ug/ml by Bactec MGIT960 modified proportion method; format: functional, organism-based
[2] = tested on: Mycobacterium tuberculosis; assay: Antimycobacterial activity against extensively drug-resistant Mycobacterium tuberculosis isolate 2911 obtained from sputum of patient at 5 ug/ml by Bactec MGIT960 modified proportion method; format: functional, organism-based
[3] = tested on: Mycobacterium tuberculosis; assay: Antimycobacterial activity against extensively drug-resistant Mycobacterium tuberculosis H37Rv by CLSI method; format: functional
[4] = tested on: Mycobacterium tuberculosis; assay: Antimycobacterial activity against extensively drug-resistant Mycobacterium tuberculosis isolate 2474 horboring rpoB H526Y, katG D329A/R463L, gyrA D94G/S95T, rrs A1401G by CLSI method; format: functional
[5] = tested on: Mycobacterium tuberculosis; assay: Antimycobacterial activity against extensively drug-resistant Mycobacterium tuberculosis isolate 761 horboring rpoB S531L/Q510P, katG S315T/R463L, gyrA D94N/S95T, rrs G1484T by CLSI method; format: functional
[6] = tested on: Mycobacterium tuberculosis; assay: Antimycobacterial activity against extensively drug-resistant Mycobacterium tuberculosis isolate 625 horboring rpoB S531L/G566R/I569L, katG S315T/R463L, gyrA A90V/S95T, rrs A1401G by CLSI method; format: functional
[7] = tested on: Mycobacterium tuberculosis; assay: Antimycobacterial activity against extensively drug-resistant Mycobacterium tuberculosis isolate 2403 obtained from sputum of patient at 5 ug/ml by Bactec MGIT960 modified proportion method; format: functional, organism-based
[8] = tested on: Mycobacterium tuberculosis; assay: Antimycobacterial activity against extensively drug-resistant Mycobacterium tuberculosis isolate 2911 horboring rpoB D516V, katG S315T/R463L, gyrA D94G/S95T/R128S/Y129C, rrs A1401G by CLSI method; format: functional
[9] = tested on: Mycobacterium tuberculosis; assay: Antimycobacterial activity against extensively drug-resistant Mycobacterium tuberculosis isolate 761 obtained from pus of patient at 5 ug/ml by Bactec MGIT960 modified proportion method; format: functional, organism-based
[10] = tested on: Mycobacterium tuberculosis; assay: Antimycobacterial activity against extensively drug-resistant Mycobacterium tuberculosis isolate 2301 obtained from sputum of patient at 5 ug/ml by Bactec MGIT960 modified proportion method; format: functional, organism-based
[11] = tested on: Mycobacterium tuberculosis; assay: Antimycobacterial activity against extensively drug-resistant Mycobacterium tuberculosis isolate 2301 horboring rpoB S531L, katG R463L/E217G, gyrA D94N/S95T, rrs A1401G by CLSI method; format: functional
[12] = tested on: Mycobacterium tuberculosis; assay: Antimycobacterial activity against extensively drug-resistant Mycobacterium tuberculosis isolate 2474 obtained from sputum of patient at 1 ug/ml by Bactec MGIT960 modified proportion method; format: functional, organism-based
[13] = tested on: Mycobacterium tuberculosis; assay: Antimycobacterial activity against extensively drug-resistant Mycobacterium tuberculosis isolate 761 obtained from pus of patient at 1 ug/ml by Bactec MGIT960 modified proportion method; format: functional, organism-based
[14] = tested on: Mycobacterium tuberculosis; assay: Antimycobacterial activity against extensively drug-resistant Mycobacterium tuberculosis isolate 2301 obtained from sputum of patient at 1 ug/ml by Bactec MGIT960 modified proportion method; format: functional, organism-based
[15] = tested on: Mycobacterium tuberculosis; assay: Antimycobacterial activity against extensively drug-resistant Mycobacterium tuberculosis isolate 2403 obtained from sputum of patient at 1 ug/ml by Bactec MGIT960 modified proportion method; format: functional, organism-based
[16] = tested on: Mycobacterium tuberculosis; assay: Antimycobacterial activity against extensively drug-resistant Mycobacterium tuberculosis isolate 2911 obtained from sputum of patient at 1 ug/ml by Bactec MGIT960 modified proportion method; format: functional, organism-based
[17] = tested on: Mycobacterium tuberculosis; assay: Antimycobacterial activity against extensively drug-resistant Mycobacterium tuberculosis isolate 2911 obtained from sputum of patient at 2 ug/ml by Bactec MGIT960 modified proportion method; format: functional, organism-based
[18] = tested on: Mycobacterium tuberculosis; assay: Antimycobacterial activity against extensively drug-resistant Mycobacterium tuberculosis isolate 761 obtained from pus of patient at 2 ug/ml by Bactec MGIT960 modified proportion method; format: functional, organism-based
[19] = tested on: Mycobacterium tuberculosis; assay: Antimycobacterial activity against extensively drug-resistant Mycobacterium tuberculosis isolate 2403 obtained from sputum of patient at 2 ug/ml by Bactec MGIT960 modified proportion method; format: functional, organism-based
[20] = tested on: Mycobacterium tuberculosis; assay: Antimycobacterial activity against extensively drug-resistant Mycobacterium tuberculosis isolate 2301 obtained from sputum of patient at 2 ug/ml by Bactec MGIT960 modified proportion method; format: functional, organism-based
[21] = tested on: Mycobacterium tuberculosis; assay: Antimycobacterial activity against extensively drug-resistant Mycobacterium tuberculosis isolate 625 obtained from sputum of patient at 2 ug/ml by Bactec MGIT960 modified proportion method; format: functional, organism-based
[22] = tested on: Mycobacterium tuberculosis; assay: Antimycobacterial activity against extensively drug-resistant Mycobacterium tuberculosis isolate 625 obtained from sputum of patient at 1 ug/ml by Bactec MGIT960 modified proportion method; format: functional, organism-based

| SMILES | MIC [3] | MIC [4] | MIC [5] | MIC [6] | MIC [8] | MIC [11] | Activity [12] | Activity [13] | Activity [14] | Activity [15] | Activity [16] | also measured |
| --- | --- | --- | --- | --- | --- | --- | --- | --- | --- | --- | --- | --- |
| CC[C@@H](CO)NCCN[C@@H](CC)CO [ETHAMBUTOL] | 1 µg/mL (≈ 4.89 µM) | 4 µg/mL (≈ 19.6 µM) | 8 µg/mL (≈ 39.2 µM) | 4 µg/mL (≈ 19.6 µM) | 4 µg/mL (≈ 19.6 µM) | 2 µg/mL (≈ 9.79 µM) |  |  |  |  |  | Activity [1]: inactive; Activity [2]: inactive; Activity [7]: inactive; Activity [9]: Active; Activity [10]: inactive |
| C[C@@H]1CN(c2c(F)c(N)c3c(=O)c(C(=O)O)cn(C4CC4)c3c2F)C[C@H](C)N1 [SPARFLOXACIN] | 0.5 µg/mL (≈ 1.27 µM) | 16 µg/mL (≈ 40.8 µM) | 16 µg/mL (≈ 40.8 µM) | 8 µg/mL (≈ 20.4 µM) | >16 µg/mL | 16 µg/mL (≈ 40.8 µM) |  |  |  |  |  |  |
| CN[C@@H]1[C@H](O[C@H]2[C@H](O[C@H]3[C@H](O)[C@@H](O)[C@H](N=C(N)N)[C@@H](O)[C@@H]3N=C(N)N)O[C@@H](C)[C@]2(O)C=O)O[C@@H](CO)[C@H](O)[C@H]1O [STREPTOMYCIN] | 1 µg/mL (≈ 1.72 µM) | >16 µg/mL | 0.125 µg/mL (≈ 0.215 µM) | 16 µg/mL (≈ 27.5 µM) | >16 µg/mL | 0.5 µg/mL (≈ 0.86 µM) | inactive | Active | inactive | inactive | inactive |  |
| COc1c(N2C[C@@H]3CCCN[C@@H]3C2)c(F)cc2c(=O)c(C(=O)O)cn(C3CC3)c12 |  |  |  |  |  |  |  |  |  |  |  | Activity [17]: inactive; Activity [18]: inactive; Activity [19]: inactive; Activity [20]: inactive; Activity [21]: inactive |
| CCc1cc(C(N)=S)ccn1 [ETHIONAMIDE] | 0.5 µg/mL (≈ 3.01 µM) | >16 µg/mL | 1 µg/mL (≈ 6.02 µM) | 4 µg/mL (≈ 24.1 µM) | 4 µg/mL (≈ 24.1 µM) | 2 µg/mL (≈ 12 µM) |  |  |  |  |  |  |
| CO[C@H]1/C=C/O[C@@]2(C)Oc3c(C)c(O)c4c(O)c(c(/C=N/N5CCN(C)CC5)c(O)c4c3C2=O)NC(=O)/C(C)=C\C=C\[C@H](C)[C@H](O)[C@@H](C)[C@@H](O)[C@@H](C)[C@H](OC(C)=O)[C@@H]1C [RIFAMPIN] | 0.25 µg/mL (≈ 0.304 µM) | >16 µg/mL | >16 µg/mL | >16 µg/mL | 16 µg/mL (≈ 19.4 µM) | >16 µg/mL | inactive | inactive | inactive | inactive | inactive | Activity [22]: inactive |
